Measurements published in patent US6812213B2, “Steroidal sapogenins and their derivatives for treating alzheimer's disease” (Phytopharm, plc, priority 1998, dated 2004).
Values joined by “and” are separate entries in the source; they are usually repeats but may differ in a detail not shown here. Equal values may be shown once.

Key:
[1] = system: m2 receptors on CHO cells; assay: Expression of m2 receptors on transfected CHO cells (tritiated QNB binding); assay type: cell-based; details: DMSO control
Experimental: 1. Chinese hamster ovary (CHO) cells transfected with the a DNA fragment coding for a muscarinic receptor. The cell line used for the majority of the experiments was a cell line expressing the m2 receptor.
The effects of various compounds on the expression of m2 receptors on CHO cells transfected with DNA for the m2 receptor were investigated. Receptor numbers were assayed using tritiated QNB binding and subtracting non-specific binding. Compounds were dissolved in DMSO and DMSO was used as a control. Compounds were tested at a range of final concentrations. Compounds were also tested in the presence and absence of tamoxifen to try to distinguish an oestrogen receptor mediated mechanism.

oestrogen receptor = assay: Oestrogenic effects of steroid sapogenin compounds
From the text: In identifying compounds that would have use in the treatment of SDAT and other diseases characterised by reductions in receptor numbers or synaptic transmission, the inventors have given consideration to the need to identify compounds that would have the desired effect but would be devoid of any oestrogenic effects, as these would be unacceptable, particularly in male patients. A number of the compounds claimed to have activity in patent application DE 4303214A1 have marked oestrogenic activity and are therefore unacceptable.
In addition these compounds were tested at other steroid receptors as it was considered that compounds that would be of clinical sue should have no effects at the other steroid receptors.

[2] = system: muscarinic receptors on cultured cardiac muscle cells; assay: Muscarinic receptor expression on cultured neonatal cardiac muscle cells (tritiated QNB); assay type: cell-based, Sprague Dawley rats
Experimental: 3. Cultured cardiac muscle cells obtained from neonatal Sprague Dawley rats. The cardiac muscle cells express muscarinic receptors, typically m2. The level of these receptors falls on prolonged culture and the effects of compounds of interest in preventing the fall in receptor numbers was investigated.
Cardiac muscle cells were isolated from the ventricular muscle of neonatal Sprague Dawley rats using standard techniques. Cells were cultured in vitro and muscarinic receptor numbers expressed on cell surfaces membrane fragments after homogenisation of cells harvested at various time points were estimated using specific binding of tritiated QNB. […] The experiments were therefore designed to investigate the effects of the various compounds in inhibiting this decline in receptor numbers.

[3] = system: major known classes of membrane bound receptor; assay: Direct binding to major known classes of membrane bound receptor
From the text: Thus it can be postulated that the observed effects are probably not due to for instance an effect at the nicotinic receptor and a consequential increase in the number of muscarinic receptors. This explanation appears to be even less plausible (although it cannot be excluded) if one considers that certain of the compounds have also been shown by the inventors to increase the number of beta adrenergic receptors expressed on peripheral blood lymphocytes. Thus the mechanism would appear to be one which has a more general effect on the regulation of membrane bound receptors.

m1 receptor mRNA = m1 receptor mRNA levels in brain by in situ hybridisation; assay type: in vivo, SD rats; details: for m1 receptor mRNA, comparison SaG vs Aged: 3 mg sarsasapogenin per rat per day in feed, four months, positive means increased
Experimental: 20 months old pure-line male SD rats were divided randomly into 2 groups. One group received an average of 3 mg of sarsasapogenin per rat per day mixed into the daily feed. The control group received normal food and water. Four months later, their brains were used in hybridisation technique experiments, with 4 to 6 months old rats used as a young control group. Other feeding arrangements for each group were completely identical.
A cDNA chain which respectively corresponds to the maNA of both m1 and m2 was synthesised, m1 corresponds to the 3-18 amino acid sequence of receptor protein, i.e. TGGTGCCAAGACAGTGATGTTGGGACTGACAGCAGGGGGCACTGAGGT, and M2 to the 1-16 amino acid sequence, i.e. ATGAATAACTCAACAAACTCCTCGAACAATGGCTTGGCTATTACCAGT. The cDNA was labelled using a 3′-terminal-label reagent kit with a-^35S-dATP (8.9 TBq/mmol) as the label material. After the reaction had finished, it was purified with a nucleotide column. The specific activity of the batch was estimated (16.67-33.34)×108 MBq/μg. a-^35S-dATP, 3′-terminal-label reagent kit and nucleotide column were obtained from Du Pont Co., USA.
One rat was obtained from each group each time and parallel experiments were performed. The rats were decapitated and their brains removed intact. 15 μm thick coronal slices were prepared in a constantly freezing cryo-microtome (AS-600 cryo-microtome, Anglia Scientific Co, UK). Slices were taken from different areas (identical places for each rat) and were mounted on slides smeared with polylysine, dried in a cool current of air, fixed in a solution of 4% paraformaldehyde (containing 1×phosphate buffer saline (PBS), pH 7.0) for 5 minutes before being washed twice in PBS. They were then placed in 0.25% acetic anhydride solution (containing 0.1 M triethanolamine hydrochloride, Ph 8.0, and 0.9% sodium chloride) for 10 minutes, dehydrated in 70%, 80%, 95%, and 100% ethyl alcohol for 1 minute, degreased in chloroform for 5 minutes, and finally treated in 100% and 95% ethyl alcohol for 1 minute successively.
Slices used as negative controls were taken and dehydrated in ethyl alcohol etc. as detailed above, but treated in advance in 100 mg m1 RNase and 2×SSC solution (salt/sodium citrate solution containing 300 mmol/L sodium chloride and […] sodium citrate) for 2 hours at 37° C. […]
Autoradiographs were prepared in a dark room, the specimen and the hyperfilm beta max being pressed together using the contact method and placed in a cassette with a desiccant, exposed at 4° C. for 2 to 3 weeks. […] Finally, the autoradiographs were analysed using a computerised image analyser (VIDAS imaging analyser, Kontron, Germany).

M1 cholinergic receptors = details: Chinese Patent No. CN1096031A; cited from earlier work
[4] = system: known steroidal receptors; assay: Binding to known steroidal receptors
β-adrenergic receptors = details: Chinese Patent No. CN1096031A; cited from earlier work
[5] = Molar concentration of compound 10^−5

Molecule | Effect on receptor expression—given as % increase compared to control (negative values in brackets) [1, 5] | Oestrogenic Activity (oestrogen receptor) | Concentration of compound causing a significant increase in number of receptors expressed on neonatal cardiac muscle after 10 days in vitro culture [2] | further results
C[C@@H]1CC[C@@]2(OC1)O[C@H]1C[C@H]3[C@@H]4C[C@@H](O)[C@@]5(O)C[C@@H](O)CC[C@]5(C)[C@H]4CC[C@]3(C)[C@H]1[C@@H]2C [Anzurogenin D] | 22% | Negative | 10^−6 M | 
C[C@@H]1CC[C@@]2(OC1)O[C@H]1C[C@H]3[C@@H]4CC=C5C[C@@H](O)CC[C@]5(C)[C@H]4CC[C@]3(C)[C@H]1[C@@H]2C [Diosgenin] |  | Positive |  | 
C[C@@H]1CC[C@@]2(OC1)O[C@H]1C[C@H]3[C@@H]4CC=C5C[C@@H](O)C[C@@H](O)[C@]5(C)[C@H]4CC[C@]3(C)[C@H]1[C@@H]2C [Ruscogenin] |  | Positive |  | 
Astragaloside |  | Negative | 10^−5 M | 
Sarsasapogenin | 34% | Negative | 10^−5 M | direct binding to membrane bound receptors [3]: not to bind directly; m1 receptor mRNA, comparison SaG vs Aged (m1 receptor mRNA; Cortex): 5.77 ± 3.82 (20); m1 receptor mRNA, comparison SaG vs Aged (m1 receptor mRNA; Hippocampus): 0.96 ± 4.26 (10); m1 receptor mRNA, comparison SaG vs Aged (m1 receptor mRNA; Striatum, p < 0.01, listed as SaG): significant increase and 15.71 ± 3.27 (10); levels of M receptor mRNA (m1 receptor mRNA; rats treated with SaG): raised; regulation of M1 cholinergic receptors (M1 cholinergic receptors): up-regulate; binding to known steroidal receptors [4]: do not bind; regulation of β-adrenergic receptors (β-adrenergic receptors): down-regulate
Smilagenin | 57% | Negative | 10^−6 M | Effect on receptor expression—given as % increase compared to control (negative values in brackets) ([1]; Molar concentration of compound 10^−6): 18%
Tigogenin |  | Negative |  | 
